Measured values: patent publication US8404677B2, “Kinase inhibitors” (Genosco, priority 2009, dated 2013)

Assays:
Test in all cases: cells
Type in all cases: cell-based
[1] = tested on: HL-60(TB); conditions: HL-60(TB) (Leukemia)
[2] = tested on: OVCAR-3; conditions: OVCAR-3 (Ovarian Cancer)
[3] = tested on: OVCAR-8; conditions: OVCAR-8 (Ovarian Cancer)
[4] = tested on: RPMI-8226; conditions: RPMI-8226 (Leukemia)
[5] = tested on: NCI-H522; conditions: NCI-H522 (NSCLC)
[6] = tested on: RXF 393; conditions: RXF 393 (Renal Cancer)
[7] = tested on: T-47D; conditions: T-47D (Breast Cancer)
[8] = tested on: SNB-19; conditions: SNB-19 (CNS Cancer)
[9] = Homo sapiens, read-out: LC50 (the source's name)

Work on `O=c1[nH]ccc2nc(N3CCC(O)CC3)nc(Nc3cccc(C(F)(F)F)c3)c12` [Compound 6, 2-(4-hydroxypiperidin-1-yl)-4-(3-(trifluoromethyl)phenylamino)pyrido[4,3-d]pyrimidine-5(6H)-one] yielded a TGI [1] of 5.01 µM, a GI50 ([1]; Homo sapiens) of 0.871 µM and an IC50 ([1]; Homo sapiens) of 1.86 µM. It also gave a CC50 [1, 9] of 100 µM, a GI50 ([2]; Homo sapiens) of 1.35 µM and an IC50 ([2]; Homo sapiens) of 3.63 µM. It also gave a CC50 [2, 9] of 46.8 µM, a TGI [2] of 3.98 µM and a GI50 ([3]; Homo sapiens) of 3.31 µM. The IC50 ([3]; Homo sapiens) was 5.01 µM, the CC50 [3, 9] was 100 µM and the TGI [3] was 40.7 µM. For the same compound, the GI50 ([4]; Homo sapiens) was 2.95 µM, the IC50 ([4]; Homo sapiens) was 5.5 µM and the CC50 [4, 9] was 100 µM. For the same compound, the TGI [4] was 91.2 µM, the GI50 ([5]; Homo sapiens) was 2.34 µM and the IC50 ([5]; Homo sapiens) was 7.59 µM. For the same compound, the CC50 [5, 9] was 34.7 µM, the TGI [5] was 10 µM and the GI50 ([6]; Homo sapiens) was 1.45 µM. For the same compound, the IC50 ([6]; Homo sapiens) was 21.4 µM, the CC50 [6, 9] was 100 µM and the TGI [6] was 23.4 µM. For the same compound, the GI50 ([7]; Homo sapiens, T47D) was 3.09 µM, the IC50 ([7]; Homo sapiens, T47D) was 8.51 µM and the CC50 ([7]; Homo sapiens, T47D, read-out: LC50 (the source's name)) was 100 µM. It also gave a TGI [7] of 26.3 µM, a GI50 ([8]; Homo sapiens) of 18.2 µM and an IC50 ([8]; Homo sapiens) of 64.6 µM. The CC50 [8, 9] was 100 µM and the TGI [8] was 100 µM.
